Assays:
[1] = tested on: maltose dehydrogenase (acceptor); experiment: Effect of surface-active agents on enzyme activity; type: biochemical, Staphylococcus sp. B-0875; details: Concentration 0.1%, in place of 0.2% Triton X-100; no addition = 100
Description: (§1) The above reaction mixture (1.0 ml) in a small test tube is pre-incubated at 37° C. Enzyme solution (10 μl) is added thereto and incubated at 37° C. for 10 min. The reaction is stopped by adding 0.1N HCl (2.0 ml) and the optical density at 550 nm (As) is measured. Distilled water (10 μl) is added as a control and the amount measured at 550 nm (Ab).
Surface active agents as in Table 5 are added one at a time to aliquots of the reaction mixture as in the assay method, in place of 0.2% Triton X-100, and the enzyme activity is measured.

[2] = tested on: maltose dehydrogenase (acceptor); experiment: Hydrogen acceptor (coenzyme) of maltose dehydrogenase (acceptor) in oxidation of maltose; type: biochemical, Staphylococcus sp. B-0875; parameters: Relative Activity (%): concentration or dose not given beside the values; details: for Relative Activity (%): as hydrogen acceptor, Reaction pH 7.5, substrate maltose; for ability to act as hydrogen acceptor: oxidative reaction of maltose
Description: as §1
Hydrogen acceptor (coenzyme) of maltose dehydrogenase (acceptor) in the oxidative reaction (dehydrogenation) of maltose is measured according to the assay method. Maltose dehydrogenase (acceptor) of the present invention requires no NAD or NADP as a coenzyme. A decrease in soluble oxygen is observed at least whwn PMS, 1-methoxy-phenazine methosulfate (MPMS) or meldola blue is used as a hydrogen acceptor.

serum amylase = experiment: Serum amylase assay with different hydrogen acceptors (Example 12); type: biochemical; details: 0.002% hydrogen acceptor; human serum 20 μl; 37° C.; absorbancy at 550 nm
Description: 40 mM phosphate buffer pH 7.0
maltose dehydrogenase (acceptor) (16.7 U/ml)
Human serun (20 μl) was added to the reaction mixture hereinabove (the hydrogen acceptor is shown in Table 6), and the material was incubated at 37° C. for 5 mins. Reaction mixture II (0.4 ml) was added thereto and the material was incubated at 37° C. Changes in absorbancy at 550 nm were measured. The results are shown in Table 6, from which it will be seen that serum amylase can be measured whatever the hydrogen acceptor.

[3] = tested on: maltose dehydrogenase (acceptor); experiment: Substrate specificity of maltose dehydrogenase (acceptor), PMS/NTB assay at 550 nm; type: biochemical, Staphylococcus sp. B-0875; details: substrate each 0.1M, 0.1 ml, in place of maltose; 37° C., 10 min
Description: 20 mM phosphate buffer (pH 7.5)
0.1% bovine serum albumin
0.025% nitrotetrazolium blue (NTB)
0.001% phenazine methosulfate (PMS: hydrogen acceptor)
as §1
One unit is defined by the amount of enzyme which oxidizes (dehydrogenates)1 μmole of maltose in one minute and enzyme activity is calculated by the following equation: [formula]
Maltose in the above assay method is replaced by the substrates in Table 2 (each 0.1M, 0.1 ml) and assayed according to the above assay method.

[4] = tested on: maltose dehydrogenase (acceptor); experiment: Km value, substrate concentration-reaction rate relation; type: biochemical, Staphylococcus sp. B-0875; details: approximate, calculated according to FIG. 5; no linear Lineweaver-Burk plot
Excerpt: Under the experimental conditions, Vmax cannot be determined and no linear Lineweaver-Burk plot can be obtained.

amylase = target: T1, amylase (Homo sapiens, UniProt P0DUB6); experiment: Salivary amylase assay with modified oligosaccharide substrates (Example 3); type: biochemical; details: 5 mM substrate; 500-fold-diluted saliva; 37° C.
T1 construct: 500-fold-diluted saliva (a specimen containing amylase, 20 μl); from tissue; host or cells: saliva, 500-fold diluted
T1 sequence (P0DUB6 16-511): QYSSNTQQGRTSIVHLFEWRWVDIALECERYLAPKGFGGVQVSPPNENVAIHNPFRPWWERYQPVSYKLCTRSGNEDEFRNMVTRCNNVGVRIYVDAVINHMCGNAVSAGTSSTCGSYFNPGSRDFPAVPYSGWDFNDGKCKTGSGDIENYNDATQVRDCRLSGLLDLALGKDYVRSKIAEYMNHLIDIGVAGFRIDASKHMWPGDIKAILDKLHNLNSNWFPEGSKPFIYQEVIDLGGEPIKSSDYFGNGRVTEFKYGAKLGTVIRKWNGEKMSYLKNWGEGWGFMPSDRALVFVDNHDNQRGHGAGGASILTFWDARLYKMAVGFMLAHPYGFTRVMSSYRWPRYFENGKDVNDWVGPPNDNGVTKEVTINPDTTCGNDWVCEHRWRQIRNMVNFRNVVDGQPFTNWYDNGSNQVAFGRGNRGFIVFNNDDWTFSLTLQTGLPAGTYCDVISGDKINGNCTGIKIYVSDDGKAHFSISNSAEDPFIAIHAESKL
Description: Aliquots of the reaction mixture (each 1 ml), in which 5 mM p-nitrophenylpentaoside or p-nitrophenylheptaoside was added to the same reaction mixture described in Example 2, in small test tubes, were pre-incubated at 37° C. Aliquots of 500-fold-diluted saliva (a specimen containing amylase, 20 μl) were added thereto and the mixtures were incubated for 5, 10 and 15 mins., respectively.

| Compound | Relative Activity (%) [1] [%] | Relative Activity (%) [2] [%] | further results |
| --- | --- | --- | --- |
| CCCCCCCCCCCCCCCC(=O)N(C)CC(=O)[O-].[Na+] [Sarcosinate PN] | 114 | – | – |
| C[C@H](CCC(=O)O)[C@H]1CC[C@H]2[C@@H]3[C@H](O)C[C@@H]4C[C@H](O)CC[C@]4(C)[C@H]3C[C@H](O)[C@]12C [Sodium cholate] | 86 | – | – |
| NC(=O)c1ccc[n+]([C@@H]2O[C@H](COP(=O)([O-])OP(=O)(O)OC[C@H]3O[C@@H](n4cnc5c(N)ncnc54)[C@H](O)[C@@H]3O)[C@@H](O)[C@H]2O)c1 [NAD, nicotine adenine dinucleotide] | – | 0 | – |
| C[N+](C)=c1ccc2nc3c(ccc4ccccc43)oc-2c1 [meldola blue, 9-dimethylaminobenzophenazoxonium chloride] | – | 20 | Relative Amylase Activity (serum amylase): 97.4% |
| CC(=O)Nc1cccc2c1nc1ccccc1[n+]2C [1-acetamide-phenazine methosulfate] | – | – | Relative Amylase Activity (serum amylase): 103%; ability to act as hydrogen acceptor [2]: can also be a hydrogen acceptor |
| Span-85 | 103 | – | – |
| CCCCCCCCCCCCCCCC[N+](C)(C)C.[Cl-] [Cetyl trimethylammonium chloride] | 94 | – | – |
| COc1cc(-c2ccc(-[n+]3nc(-c4ccccc4)nn3-c3ccc([N+](=O)[O-])cc3)c(OC)c2)ccc1-[n+]1nc(-c2ccccc2)nn1-c1ccc([N+](=O)[O-])cc1 [NTB, nitrotetrazolium blue] | – | 0 | – |
| OC[C@H]1O[C@H](O[C@H]2[C@H](O)[C@@H](O)[C@H](O)O[C@@H]2CO)[C@H](O)[C@@H](O)[C@@H]1O [maltose] | – | – | Relative Activity (%) [3]: 100%; Km [4]: ~3800 µM |
| Sodium laurylbenzene sulfate | 0.2 | – | – |
| CN(C)c1ccc2nc3ccc(=[N+](C)C)cc-3sc2c1 [methylene blue] | – | 0 | – |
| COc1cccc2c1nc1ccccc1[n+]2C [MPMS, 1-methoxy-phenazine methosulfate] | – | 30 | Relative Amylase Activity (serum amylase): 102% |
| Triton X-100 | 115 | – | – |
| OC[C@H]1O[C@H](O[C@H]2[C@H](O)[C@@H](O)[C@H](O)O[C@@H]2CO)[C@H](O)[C@@H](O)[C@@H]1O [β-maltose] | – | – | Km [4]: 1360 µM |
| O=[N+]([O-])c1ccc(OC2O[C@H](CO)[C@@H](O[C@H]3O[C@H](CO)[C@@H](O[C@H]4O[C@H](CO)[C@@H](O[C@H]5O[C@H](CO)[C@@H](O[C@H]6O[C@H](CO)[C@@H](O[C@H]7O[C@H](CO)[C@@H](O[C@H]8O[C@H](CO)[C@@H](O)[C@H](O)[C@H]8O)[C@H](O)[C@H]7O)[C@H](O)[C@H]6O)[C@H](O)[C@H]5O)[C@H](O)[C@H]4O)[C@H](O)[C@H]3O)[C@H](O)[C@H]2O)cc1 (stereo partly shown) [p-nitrophenylheptaoside] | – | – | activity as compared with p-nitrophenylpentaoside (amylase): Three times stronger activity |
| Tween-80 | 104 | – | – |
| C[n+]1c2ccccc2nc2ccccc21 [PMS, phenazine methosulfate] | – | 100 | Relative Amylase Activity (serum amylase): 100% |
| NC(=O)c1ccc[n+]([C@@H]2O[C@H](COP(=O)([O-])OP(=O)(O)OC[C@H]3O[C@@H](n4cnc5c(N)ncnc54)[C@H](OP(=O)(O)O)[C@@H]3O)[C@@H](O)[C@H]2O)c1 [NADP, nicotine adenine dinucleotide phosphate] | – | 0 | – |
| O=C1C(Cl)=CC(=Nc2ccc(O)cc2)C=C1Cl [2,6-dichlorophenolindophenol] | – | – | ability to act as hydrogen acceptor [2]: can also be a hydrogen acceptor |
| CCCCCCCCCCCCOS(=O)(=O)O [SDS] | 3.8 | – | – |
